ChEMBL document CHEMBL4308877, “Thiazole, thio and semicarbazone derivatives against tropical infective diseases: Chagas disease, human African trypanosomiasis (HAT), leishmaniasis, and malaria” (Eur J Med Chem, 2019)
Values belong to the compound of their own block, whether it stands above or below them.

Legend:
Leishmania panamensis = assay: Anti-parasitic activity against amastigote stage of EGFP-fused Leishmania panamensis MHOM/CO/87/UA140 infected in human U-937 cells after 72 hrs by flow cytometric analysis; type: functional, organism-based; conditions: MHOM/CO/87/UA140, U-937, 72 h
[1] = Selectivity index, ratio of EC50 for human U-937 cells to IC50 for amastigote stage of EGFP-fused Leishmania panamensis MHOM/CO/87/UA140; type: toxicity; conditions: read-out: Selectivity Index
[2] = test system: Trypanosoma brucei brucei; assay: Anti-parasitic activity against trypomastigote stage of Trypanosoma brucei brucei; type: functional, organism-based
[3] = Selectivity index, ratio of IC50 for human WI38 cells to IC50 for trypomastigote stage of Trypanosoma brucei brucei; type: toxicity; conditions: read-out: Ratio IC50
[4] = test system: Trypanosoma brucei brucei; assay: Anti-parasitic activity against Trypanosoma brucei brucei 427 after 72 hrs by Alamar Blue assay; type: functional, organism-based; conditions: Trypanosoma brucei, 427, 72 h
[5] = Selectivity index, ratio of LC50 for salina eggs to IC50 for Trypanosoma brucei brucei 427; type: toxicity; conditions: Artemia salina (brine shrimp), read-out: Ratio IC50
[6] = Selectivity index, ratio of cytotoxic activity for monkey LLC-MK2 cells to IC50 for trypomastigote stage of Trypanosoma cruzi Y; type: toxicity
Trypanosoma cruzi = assay: Anti-parasitic activity against trypomastigote stage of Trypanosoma cruzi Y infected in monkey LLC-MK2 cells after 24 hrs; type: functional, organism-based; conditions: LLC-MK2, 24 h
[7] = Selectivity index, ratio of CC50 for mouse macrophages to IC50 for amastigote stage of Leishmania amazonensis WHOM/00 LTB 0016; type: toxicity; conditions: read-out: Ratio CC50/IC50
Leishmania amazonensis [8] = assay: Anti-parasitic activity against amastigote stage of Leishmania amazonensis WHOM/00 LTB 0016 infected in mouse macrophages after 24 hrs; type: functional, organism-based; conditions: WHOM/00 LTB 0016, 24 h
Leishmania amazonensis [9] = assay: Anti-parasitic activity against promastigote stage of Leishmania amazonensis WHOM/00 LTB 0016 after 96 hrs; type: functional, organism-based; conditions: WHOM/00 LTB 0016, 96 h
[10] = Selectivity index, ratio of CC50 for mouse macrophages to IC50 for promastigote stage of Leishmania amazonensis WHOM/00 LTB 0016; type: toxicity; conditions: read-out: Ratio CC50/IC50
[11] = target: Cruzipain (Trypanosoma cruzi) (UniProt P25779); assay: Inhibition of recombinant Trypanosoma cruzi CL epimastigotes form cruzain at 100 uM using Z-FR-AMC as substrate preincubated for 10 mins followed by substrate addition measured after 5 mins by fluorimetric analysis relative to control
Trypanosoma brucei [12] = assay: Anti-parasitic activity against wild type Trypanosoma brucei; type: functional, organism-based
Trypanosoma brucei [13] = assay: Anti-parasitic activity against type 1 nitroreductase over-expressing Trypanosoma brucei; type: functional, organism-based
[14] = Selectivity index, ratio of IC50 for human THP1 cells to IC50 for Trypanosoma brucei overexpressing the type 1 nitroreductase; type: toxicity; conditions: read-out: Ratio IC50
[15] = Selectivity index, ratio of IC50 for human SK-N-SH cells to IC50 for wild type Trypanosoma brucei; type: toxicity; conditions: read-out: Ratio IC50
[16] = Selectivity index, ratio of CC50 for mouse J774A1 cells to IC50 for promastigote stage of Leishmania amazonensis MHOM/BR/Josefa; type: toxicity; conditions: read-out: Ratio CC50/IC50
Leishmania amazonensis [17] = assay: Anti-parasitic activity against promastigote stage of Leishmania amazonensis MHOM/BR/Josefa […] after 72 hrs by Neubauer chamber method; type: functional, organism-based
Leishmania amazonensis [18] = assay: Anti-parasitic activity against amastigote stage of Leishmania amazonensis MHOM/BR/Josefa infected in BALB/c mouse Peritoneal macrophages after 48 hrs by Giemsa staining-based method; type: functional, organism-based
[19] = Selectivity index, ratio of CC50 for mouse J774A1 cells to IC50 for amastigote stage of Leishmania amazonensis infected in BALB/c mouse Peritoneal macrophages; type: toxicity; conditions: read-out: Ratio CC50/IC50
[20] = Selectivity index, ratio of CC50 for mouse J774A1 cells to IC50 for axenic amastigote stage of Leishmania amazonensis MHOM/BR/Josefa; type: toxicity; conditions: read-out: Ratio CC50/IC50
Leishmania amazonensis [21] = assay: Anti-parasitic activity against axenic amastigote stage of Leishmania amazonensis MHOM/BR/Josefa […] after 72 hrs by Neubauer chamber method; type: functional, organism-based
HT-29 = assay: Cytotoxicity against human HT-29 cells assessed as reduction in cell viability after 72 hrs by MTT assay; type: functional, cell-based; conditions: HT-29, 72 h
MDA-MB-231 = assay: Cytotoxicity against human MDA-MB-231 cells assessed as reduction in cell viability after 72 hrs by MTT assay; type: functional, cell-based; conditions: MDA-MB-231, 72 h
MKN-45 = assay: Cytotoxicity against human MKN45 cells assessed as reduction in cell viability after 72 hrs by MTT assay; type: functional, cell-based; conditions: MKN-45, 72 h
A549 = assay: Cytotoxicity against human A549 cells assessed as reduction in cell viability after 72 hrs by MTT assay; type: functional, cell-based; conditions: A549, 72 h

Chain of Cruzipain (Trypanosoma cruzi) (P25779 123-467 limits assumed): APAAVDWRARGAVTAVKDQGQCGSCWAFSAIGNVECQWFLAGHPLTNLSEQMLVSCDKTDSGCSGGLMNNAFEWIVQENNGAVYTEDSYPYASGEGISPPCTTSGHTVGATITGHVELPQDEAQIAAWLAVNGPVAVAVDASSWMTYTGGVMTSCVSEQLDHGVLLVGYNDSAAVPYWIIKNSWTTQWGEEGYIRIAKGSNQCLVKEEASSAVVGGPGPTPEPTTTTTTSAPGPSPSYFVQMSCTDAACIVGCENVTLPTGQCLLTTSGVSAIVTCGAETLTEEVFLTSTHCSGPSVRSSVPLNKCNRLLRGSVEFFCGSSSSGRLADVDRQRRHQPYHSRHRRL

EC50 (Leishmania panamensis): 16.4 µM
SMILES: O=C(N/N=C1\CC(c2ccccc2)Sc2ccccc21)c1ccncc1 (centres undefined)
selectivity ratio [1]: 33.9

IC50 [2]: 10.9 µM
SMILES: CC1=C/C(=N/NC(=S)Nc2ccccc2)C(C(C)C)CC1 (centres undefined)
selectivity ratio [3]: 12.3

EC50 (Leishmania panamensis): 5.4 µM
SMILES: NC(=O)N/N=C1\CC(c2ccccc2)Sc2ccccc21 (centres undefined)
selectivity ratio [1]: 18.6

SMILES: Nc1ccccc1/C(=N\NC(=S)Nc1ccccc1)c1ccccc1
IC50 [4]: 2.83 µM
selectivity ratio [5]: 15

IC50 (Trypanosoma cruzi): 10.8 µM
SMILES: CCC1S/C(=N/N=C(/COc2ccccc2)c2ccc(-c3ccccc3)cc2)NC1=O (centres undefined)
selectivity ratio [6]: > 21.6

IC50 (Leishmania amazonensis [8]): 34.3 µM
IC50 (Leishmania amazonensis [9]): 3.5 µM
SMILES: COc1ccc(/C(COc2ccccc2)=N\NC(N)=S)cc1
selectivity ratio [7]: 4.5
selectivity ratio [10]: 44.4

inhibition [11]: 70%
SMILES: CC(C)c1ccc(/C=N/NC(N)=S)cc1

IC50 (Leishmania amazonensis [8]): 33 µM
IC50 (Leishmania amazonensis [9]): 6 µM
SMILES: NC(=S)N/N=C(/COc1ccccc1)c1ccccc1
selectivity ratio [7]: 4.94
selectivity ratio [10]: 71.1

SMILES: CCCCC(=O)Nc1ncc([N+](=O)[O-])s1
IC50 (Trypanosoma brucei [12]): 4.32 µM
IC50 (Trypanosoma brucei [13]): 0.57 µM
selectivity ratio [14]: > 175
selectivity ratio [15]: > 23

IC50 (Leishmania amazonensis [8]): 40.3 µM
IC50 (Leishmania amazonensis [9]): 4.9 µM
SMILES: NC(=S)N/N=C(/COc1ccccc1)c1ccc(Cl)cc1
selectivity ratio [7]: 2.77
selectivity ratio [10]: 22.8

IC50 (Leishmania amazonensis [17]): 3.8 µM
IC50 (Leishmania amazonensis [18]): 7.7 µM
IC50 (Leishmania amazonensis [21]): 8 µM
SMILES: CC1=CC[C@@H](C(C)(C)NC(=S)N/N=C/c2ccc([N+](=O)[O-])cc2)CC1
selectivity ratio [16]: 23.4
selectivity ratio [19]: 11.5
selectivity ratio [20]: 11.1

SMILES: COc1cc2c(Oc3ccc(/C=N/NC(=O)Nc4ccccc4F)cc3F)ccnc2cc1OCCCN1CCCCC1
IC50 (HT-29): 0.059 µM
IC50 (MDA-MB-231): 0.77 µM
IC50 (MKN-45): 0.016 µM
IC50 (A549): 0.009 µM

IC50 (Trypanosoma cruzi): 4 µM
SMILES: CCC1S/C(=N/N=C(/COc2ccccc2)c2ccc(Br)cc2)NC1=O (centres undefined)
selectivity ratio [6]: > 57.9
